PMC12373846, “Hemoglobin as a pseudoperoxidase and drug target for oxidative stress-related diseases” (Signal Transduction and Targeted Therapy, 2025)
“And” between values parts separate entries of the source, which are not always exact repeats. Equal values may be shown once. Read-outs that look alike come from different tables or passages of the source.

Legend:
KIT = biological target: T1, KIT (Homo sapiens, UniProt P10721); assay: KINOMEscan; type: binding; conditions: 10000 nM; read-out: Percent Control
T1 construct: purchased DiscoverX KINOMEscan scanEDGE; Eurofins Cerep SafetyScreen87
How it was run: (§1)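 scanEDGE site-directed competition binding covers the kinase entries. Delta SafetyScreen87 covers the others.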

GSK3B = biological target: T2, GSK3B (Homo sapiens, UniProt P49841); assay: KINOMEscan; type: binding; conditions: 10000 nM; read-out: Percent Control
T2 construct: purchased DiscoverX KINOMEscan scanEDGE; Eurofins Cerep SafetyScreen87
How it was run: as §1

PDGFRB = biological target: T3, PDGFRB (Homo sapiens, UniProt P09619); assay: KINOMEscan; type: binding; conditions: 10000 nM; read-out: Percent Control
T3 construct: purchased DiscoverX KINOMEscan scanEDGE; Eurofins Cerep SafetyScreen87
How it was run: as §1

PIK3CG = biological target: T4, PIK3CG (Homo sapiens, UniProt P48736); assay: KINOMEscan; type: binding; conditions: 10000 nM; read-out: Percent Control
T4 construct: purchased DiscoverX KINOMEscan scanEDGE; Eurofins Cerep SafetyScreen87
How it was run: as §1

PAK4 = biological target: T5, PAK4 (Homo sapiens, UniProt O96013); assay: KINOMEscan; type: binding; conditions: 10000 nM; read-out: Percent Control
T5 construct: purchased DiscoverX KINOMEscan scanEDGE; Eurofins Cerep SafetyScreen87
How it was run: as §1

PIK3C2B = biological target: T6, PIK3C2B (Homo sapiens, UniProt O00750); assay: KINOMEscan; type: binding; conditions: 10000 nM; read-out: Percent Control
T6 construct: purchased DiscoverX KINOMEscan scanEDGE; Eurofins Cerep SafetyScreen87
How it was run: as §1

CDK2 = biological target: T7, CDK2 (Homo sapiens, UniProt P24941); assay: KINOMEscan; type: binding; conditions: 10000 nM; read-out: Percent Control
T7 construct: purchased DiscoverX KINOMEscan scanEDGE; Eurofins Cerep SafetyScreen87
How it was run: as §1

AXL = biological target: T8, AXL (Homo sapiens, UniProt P30530); assay: KINOMEscan; type: binding; conditions: 10000 nM; read-out: Percent Control
T8 construct: purchased DiscoverX KINOMEscan scanEDGE; Eurofins Cerep SafetyScreen87
How it was run: as §1

TRKA = biological target: T9, TRKA (Homo sapiens, UniProt P04629); assay: KINOMEscan; type: binding; conditions: 10000 nM; read-out: Percent Control
T9 construct: purchased DiscoverX KINOMEscan scanEDGE; Eurofins Cerep SafetyScreen87
How it was run: as §1

ACVR1B = biological target: T10, ACVR1B (Homo sapiens, UniProt P36896); assay: KINOMEscan; type: binding; conditions: 10000 nM; read-out: Percent Control
T10 construct: purchased DiscoverX KINOMEscan scanEDGE; Eurofins Cerep SafetyScreen87
How it was run: as §1

AKT2 = biological target: T11, AKT2 (Homo sapiens, UniProt P31751); assay: KINOMEscan; type: binding; conditions: 10000 nM; read-out: Percent Control
T11 construct: purchased DiscoverX KINOMEscan scanEDGE; Eurofins Cerep SafetyScreen87
How it was run: as §1

YANK3 = biological target: T12, YANK3 (Homo sapiens, UniProt Q86UX6); assay: KINOMEscan; type: binding; conditions: 10000 nM; read-out: Percent Control
T12 construct: purchased DiscoverX KINOMEscan scanEDGE; Eurofins Cerep SafetyScreen87
How it was run: as §1

TGFBR1 = biological target: T13, TGFBR1 (Homo sapiens, UniProt P36897); assay: KINOMEscan; type: binding; conditions: 10000 nM; read-out: Percent Control
T13 construct: purchased DiscoverX KINOMEscan scanEDGE; Eurofins Cerep SafetyScreen87
How it was run: as §1

LKB1 = biological target: T14, LKB1 (Homo sapiens, UniProt Q15831); assay: KINOMEscan; type: binding; conditions: 10000 nM; read-out: Percent Control
T14 construct: purchased DiscoverX KINOMEscan scanEDGE; Eurofins Cerep SafetyScreen87
How it was run: as §1

BMPR2 = biological target: T15, BMPR2 (Homo sapiens, UniProt Q13873); assay: KINOMEscan; type: binding; conditions: 10000 nM; read-out: Percent Control
T15 construct: purchased DiscoverX KINOMEscan scanEDGE; Eurofins Cerep SafetyScreen87
How it was run: as §1

[1] = biological target: T16, 5-HT2A (h) (agonist radioligand) (Homo sapiens, UniProt P28223); assay: SafetyScreen87 panel; conditions: 1.0E-06 M; mean; read-out: % Inhibition of Control Specific Binding (1st, 2nd, Mean)
T16 construct: purchased DiscoverX KINOMEscan scanEDGE; Eurofins Cerep SafetyScreen87
Method: (§2) The possibility of KDS12025 on kinase off-target, the KINOMEscan panel of scanEDGE assay was conducted in DiscoverX (CA, USA) using a site-directed competition binding with the test compounds. The assay results are given in Supplementary Table 4 and experimental information is available on the DiscoverX web page (www.discoverx.com). Moreover, the Delta SafetyScreen87 panel assay was conducted in Eurofins Discovery (Cerep, France). The assay results are given in Supplementary Table 5 and experimental information is available on the DiscoverX web page (https://www.eurofinsdiscoveryservices.com).

[2] = biological target: T17, Estrogen ER alpha (h) (agonist radioligand) (Homo sapiens, UniProt P03372); assay: SafetyScreen87 panel; conditions: 1.0E-06 M; mean; read-out: % Inhibition of Control Specific Binding (1st, 2nd, Mean)
T17 construct: purchased DiscoverX KINOMEscan scanEDGE; Eurofins Cerep SafetyScreen87
Method: as §2

[3] = biological target: T18, PAF (h) (agonist radioligand) (Homo sapiens, UniProt P25105); assay: SafetyScreen87 panel; conditions: 1.0E-06 M; read-out: % Inhibition of Control Specific Binding (1st, 2nd, Mean)
T18 construct: purchased DiscoverX KINOMEscan scanEDGE; Eurofins Cerep SafetyScreen87
Method: as §2

[4] = biological target: T19, AT1 (h) (antagonist radioligand) (Homo sapiens, UniProt P30556); assay: SafetyScreen87 panel; conditions: 1.0E-06 M, read-out: % Inhibition of Control Specific Binding (1st, 2nd, Mean)
T19 construct: purchased DiscoverX KINOMEscan scanEDGE; Eurofins Cerep SafetyScreen87
Method: as §2

[5] = biological target: T20, PR (h) (agonist radioligand) (Homo sapiens, UniProt P06401); assay: SafetyScreen87 panel; conditions: read-out: % Inhibition of Control Specific Binding (1st, 2nd, Mean); 1.0E-06 M
T20 construct: purchased DiscoverX KINOMEscan scanEDGE; Eurofins Cerep SafetyScreen87
Method: as §2

[6] = biological target: T21, D2S (h) (agonist radioligand) (Homo sapiens, UniProt P14416); assay: SafetyScreen87 panel; conditions: 1.0E-06 M, read-out: % Inhibition of Control Specific Binding (1st, 2nd, Mean)
T21 construct: purchased DiscoverX KINOMEscan scanEDGE; Eurofins Cerep SafetyScreen87
Method: as §2

[7] = biological target: T22, M4 (h) (antagonist radioligand) (Homo sapiens, UniProt P08173); assay: SafetyScreen87 panel; conditions: 1.0E-06 M; mean; read-out: % Inhibition of Control Specific Binding (1st, 2nd, Mean)
T22 construct: purchased DiscoverX KINOMEscan scanEDGE; Eurofins Cerep SafetyScreen87
Method: as §2

[8] = tested on: glycine (strychnine-sensitive) (antagonist radioligand); assay: SafetyScreen87 panel; conditions: 1.0E-06 M, read-out: % Inhibition of Control Specific Binding (1st, 2nd, Mean)
Method: as §2

[9] = biological target: T23, A2A (h) (agonist radioligand) (Homo sapiens, UniProt P29274); assay: SafetyScreen87 panel; conditions: 1.0E-06 M, read-out: % Inhibition of Control Specific Binding (1st, 2nd, Mean)
T23 construct: purchased DiscoverX KINOMEscan scanEDGE; Eurofins Cerep SafetyScreen87
Method: as §2

[10] = tested on: Ca2+ channel (L, dihydropyridine site) (antagonist radioligand); assay: SafetyScreen87 panel; conditions: 1.0E-06 M, read-out: % Inhibition of Control Specific Binding (1st, 2nd, Mean)
Method: as §2

[11] = biological target: T24, norepinephrine transporter (h) (antagonist radioligand) (Homo sapiens, UniProt P23975); assay: SafetyScreen87 panel; conditions: 1.0E-06 M, read-out: % Inhibition of Control Specific Binding (1st, 2nd, Mean)
T24 construct: Eurofins Discovery (Cerep, France) SafetyScreen87 panel
Method: as §2

[12] = biological target: T25, beta 2 (h) (antagonist radioligand) (Homo sapiens, UniProt P07550); assay: SafetyScreen87 panel
T25 construct: purchased DiscoverX KINOMEscan scanEDGE; Eurofins Cerep SafetyScreen87
Method: as §2

[13] = biological target: T26, NK1 (h) (agonist radioligand) (Homo sapiens, UniProt P25103); assay: SafetyScreen87 panel; conditions: 1.0E-06 M; mean; read-out: % Inhibition of Control Specific Binding (1st, 2nd, Mean)
T26 construct: purchased DiscoverX KINOMEscan scanEDGE; Eurofins Cerep SafetyScreen87
Method: as §2

[14] = biological target: T27, MC4 (h) (agonist radioligand) (Homo sapiens, UniProt P32245); assay: SafetyScreen87 panel; conditions: 1.0E-06 M; read-out: % Inhibition of Control Specific Binding (1st, 2nd, Mean)
T27 construct: purchased DiscoverX KINOMEscan scanEDGE; Eurofins Cerep SafetyScreen87
Method: as §2

[15] = biological target: T28, H2 (h) (antagonist radioligand) (Homo sapiens, UniProt P25021); assay: SafetyScreen87 panel; conditions: read-out: % Inhibition of Control Specific Binding (1st, 2nd, Mean); 1.0E-06 M
T28 construct: purchased DiscoverX KINOMEscan scanEDGE; Eurofins Cerep SafetyScreen87
Method: as §2

[16] = biological target: T29, CysLT1 (LTD4) (h) (agonist radioligand) (Homo sapiens, UniProt Q9Y271); assay: SafetyScreen87 panel; conditions: read-out: % Inhibition of Control Specific Binding (1st, 2nd, Mean); 1.0E-06 M
T29 construct: purchased DiscoverX KINOMEscan scanEDGE; Eurofins Cerep SafetyScreen87
Method: as §2

[17] = biological target: T30, CCR1 (h) (agonist radioligand) (Homo sapiens, UniProt P32246); assay: SafetyScreen87 panel
T30 construct: purchased DiscoverX KINOMEscan scanEDGE; Eurofins Cerep SafetyScreen87
Method: as §2

[18] = biological target: T31, 5-HT3 (h) (antagonist radioligand) (Homo sapiens, UniProt P46098); assay: SafetyScreen87 panel; conditions: 1.0E-06 M; read-out: % Inhibition of Control Specific Binding (1st, 2nd, Mean)
T31 construct: purchased DiscoverX KINOMEscan scanEDGE; Eurofins Cerep SafetyScreen87
Method: as §2

[19] = biological target: T32, A1 (h) (antagonist radioligand) (Homo sapiens, UniProt P30542); assay: SafetyScreen87 panel; conditions: 1.0E-06 M, read-out: % Inhibition of Control Specific Binding (1st, 2nd, Mean)
T32 construct: purchased DiscoverX KINOMEscan scanEDGE; Eurofins Cerep SafetyScreen87
Method: as §2

[20] = 1.0E-06 M; read-out: % Inhibition of Control Specific Binding (1st, 2nd, Mean)
[21] = read-out: % Inhibition of Control Specific Binding (1st, 2nd, Mean); 1.0E-06 M

T21 sequence (P14416 1-414 isoform P14416-2): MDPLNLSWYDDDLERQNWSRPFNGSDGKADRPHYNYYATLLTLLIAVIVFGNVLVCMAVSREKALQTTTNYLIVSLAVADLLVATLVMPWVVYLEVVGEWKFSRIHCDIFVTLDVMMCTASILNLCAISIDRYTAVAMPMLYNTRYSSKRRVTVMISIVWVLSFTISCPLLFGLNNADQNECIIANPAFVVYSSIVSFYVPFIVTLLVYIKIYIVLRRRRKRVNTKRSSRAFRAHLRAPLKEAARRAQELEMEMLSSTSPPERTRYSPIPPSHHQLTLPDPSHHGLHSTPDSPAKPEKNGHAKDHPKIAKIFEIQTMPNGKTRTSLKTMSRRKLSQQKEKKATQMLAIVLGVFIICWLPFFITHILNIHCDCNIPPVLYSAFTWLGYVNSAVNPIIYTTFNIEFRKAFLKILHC
T32 sequence (P30542 whole entry): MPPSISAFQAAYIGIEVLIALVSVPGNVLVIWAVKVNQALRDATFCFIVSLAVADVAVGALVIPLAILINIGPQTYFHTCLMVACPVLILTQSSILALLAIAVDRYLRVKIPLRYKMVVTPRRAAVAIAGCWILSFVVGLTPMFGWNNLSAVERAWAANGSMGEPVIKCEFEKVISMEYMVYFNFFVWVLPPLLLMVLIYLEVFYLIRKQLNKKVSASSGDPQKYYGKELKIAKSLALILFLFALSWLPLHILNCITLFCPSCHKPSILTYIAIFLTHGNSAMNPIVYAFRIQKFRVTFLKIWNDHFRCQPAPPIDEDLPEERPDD
T23 sequence (P29274 whole entry): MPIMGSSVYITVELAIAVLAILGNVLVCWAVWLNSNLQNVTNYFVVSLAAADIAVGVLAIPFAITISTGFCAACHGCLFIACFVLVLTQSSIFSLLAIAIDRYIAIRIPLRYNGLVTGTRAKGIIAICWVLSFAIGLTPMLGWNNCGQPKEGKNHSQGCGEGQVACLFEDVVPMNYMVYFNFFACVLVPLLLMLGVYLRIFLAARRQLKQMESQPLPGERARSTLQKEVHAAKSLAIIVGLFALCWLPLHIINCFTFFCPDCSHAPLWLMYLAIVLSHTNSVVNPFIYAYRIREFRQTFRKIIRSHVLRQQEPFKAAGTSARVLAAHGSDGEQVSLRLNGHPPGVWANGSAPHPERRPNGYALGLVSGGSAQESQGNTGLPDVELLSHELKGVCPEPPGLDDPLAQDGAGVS
T19 sequence (P30556 whole entry): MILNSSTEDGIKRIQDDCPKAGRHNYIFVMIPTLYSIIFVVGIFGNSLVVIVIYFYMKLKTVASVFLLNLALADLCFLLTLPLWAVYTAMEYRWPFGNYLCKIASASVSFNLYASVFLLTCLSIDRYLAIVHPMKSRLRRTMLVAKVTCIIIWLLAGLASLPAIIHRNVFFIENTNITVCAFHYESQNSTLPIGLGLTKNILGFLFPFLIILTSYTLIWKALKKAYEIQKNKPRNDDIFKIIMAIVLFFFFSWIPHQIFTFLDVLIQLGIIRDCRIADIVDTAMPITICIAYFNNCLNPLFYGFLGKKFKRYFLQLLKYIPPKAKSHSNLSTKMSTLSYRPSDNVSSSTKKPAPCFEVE
T30 sequence (P32246 whole entry): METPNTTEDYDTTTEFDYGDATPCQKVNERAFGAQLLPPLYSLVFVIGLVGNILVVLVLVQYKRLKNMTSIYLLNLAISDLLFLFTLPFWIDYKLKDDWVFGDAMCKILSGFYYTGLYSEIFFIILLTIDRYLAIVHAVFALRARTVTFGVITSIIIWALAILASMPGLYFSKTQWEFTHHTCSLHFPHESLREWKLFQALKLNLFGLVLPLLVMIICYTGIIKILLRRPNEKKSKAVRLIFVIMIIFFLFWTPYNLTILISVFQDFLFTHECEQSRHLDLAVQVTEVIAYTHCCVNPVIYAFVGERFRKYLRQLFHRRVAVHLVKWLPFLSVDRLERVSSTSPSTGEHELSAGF
T18 sequence (P25105 whole entry): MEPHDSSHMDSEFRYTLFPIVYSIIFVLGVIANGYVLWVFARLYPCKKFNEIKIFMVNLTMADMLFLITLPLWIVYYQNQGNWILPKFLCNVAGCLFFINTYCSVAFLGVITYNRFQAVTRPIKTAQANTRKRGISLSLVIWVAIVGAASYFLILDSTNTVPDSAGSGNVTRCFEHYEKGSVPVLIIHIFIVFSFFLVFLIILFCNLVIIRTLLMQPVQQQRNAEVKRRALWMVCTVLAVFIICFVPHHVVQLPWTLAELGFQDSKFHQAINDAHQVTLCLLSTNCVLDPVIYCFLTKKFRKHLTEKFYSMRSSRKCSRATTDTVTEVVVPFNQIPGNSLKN
T31 sequence (P46098 24-478): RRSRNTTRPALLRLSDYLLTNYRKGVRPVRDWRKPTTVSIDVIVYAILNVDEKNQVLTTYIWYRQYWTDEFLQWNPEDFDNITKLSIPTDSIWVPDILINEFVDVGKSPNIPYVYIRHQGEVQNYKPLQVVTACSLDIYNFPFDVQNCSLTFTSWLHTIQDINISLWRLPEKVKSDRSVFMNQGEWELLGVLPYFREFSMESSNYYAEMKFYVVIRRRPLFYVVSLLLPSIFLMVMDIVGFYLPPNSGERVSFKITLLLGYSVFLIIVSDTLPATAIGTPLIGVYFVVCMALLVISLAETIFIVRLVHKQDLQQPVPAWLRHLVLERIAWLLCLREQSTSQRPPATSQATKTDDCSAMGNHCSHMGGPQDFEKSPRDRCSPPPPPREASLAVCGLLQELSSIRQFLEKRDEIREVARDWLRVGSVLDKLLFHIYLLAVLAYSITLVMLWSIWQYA
T24 sequence (P23975 whole entry): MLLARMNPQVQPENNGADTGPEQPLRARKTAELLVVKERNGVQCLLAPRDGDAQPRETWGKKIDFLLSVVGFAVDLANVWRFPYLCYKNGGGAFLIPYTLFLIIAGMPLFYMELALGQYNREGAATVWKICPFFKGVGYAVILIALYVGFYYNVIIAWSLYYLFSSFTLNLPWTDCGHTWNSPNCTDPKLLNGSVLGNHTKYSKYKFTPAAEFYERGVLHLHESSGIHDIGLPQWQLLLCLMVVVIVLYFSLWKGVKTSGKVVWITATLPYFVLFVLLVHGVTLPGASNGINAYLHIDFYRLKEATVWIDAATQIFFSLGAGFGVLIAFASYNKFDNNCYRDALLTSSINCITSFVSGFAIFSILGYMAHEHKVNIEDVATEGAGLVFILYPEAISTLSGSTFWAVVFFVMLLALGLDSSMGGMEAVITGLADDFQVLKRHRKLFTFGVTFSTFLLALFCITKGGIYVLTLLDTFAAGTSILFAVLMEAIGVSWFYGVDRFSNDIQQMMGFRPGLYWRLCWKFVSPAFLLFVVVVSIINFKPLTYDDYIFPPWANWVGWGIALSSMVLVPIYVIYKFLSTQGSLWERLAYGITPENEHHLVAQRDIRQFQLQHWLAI
T25 sequence (P07550 whole entry): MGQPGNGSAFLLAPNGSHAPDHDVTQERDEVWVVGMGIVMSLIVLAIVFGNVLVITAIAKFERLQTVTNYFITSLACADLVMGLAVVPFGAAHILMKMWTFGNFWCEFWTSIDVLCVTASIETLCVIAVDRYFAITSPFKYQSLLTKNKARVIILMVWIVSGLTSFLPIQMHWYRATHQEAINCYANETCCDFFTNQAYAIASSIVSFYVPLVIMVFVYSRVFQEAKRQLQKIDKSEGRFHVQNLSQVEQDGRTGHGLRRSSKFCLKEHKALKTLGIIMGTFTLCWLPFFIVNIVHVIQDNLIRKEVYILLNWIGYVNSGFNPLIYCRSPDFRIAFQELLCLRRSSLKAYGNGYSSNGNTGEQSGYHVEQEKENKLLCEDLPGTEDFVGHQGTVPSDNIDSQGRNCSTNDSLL
T17 sequence (P03372 whole entry): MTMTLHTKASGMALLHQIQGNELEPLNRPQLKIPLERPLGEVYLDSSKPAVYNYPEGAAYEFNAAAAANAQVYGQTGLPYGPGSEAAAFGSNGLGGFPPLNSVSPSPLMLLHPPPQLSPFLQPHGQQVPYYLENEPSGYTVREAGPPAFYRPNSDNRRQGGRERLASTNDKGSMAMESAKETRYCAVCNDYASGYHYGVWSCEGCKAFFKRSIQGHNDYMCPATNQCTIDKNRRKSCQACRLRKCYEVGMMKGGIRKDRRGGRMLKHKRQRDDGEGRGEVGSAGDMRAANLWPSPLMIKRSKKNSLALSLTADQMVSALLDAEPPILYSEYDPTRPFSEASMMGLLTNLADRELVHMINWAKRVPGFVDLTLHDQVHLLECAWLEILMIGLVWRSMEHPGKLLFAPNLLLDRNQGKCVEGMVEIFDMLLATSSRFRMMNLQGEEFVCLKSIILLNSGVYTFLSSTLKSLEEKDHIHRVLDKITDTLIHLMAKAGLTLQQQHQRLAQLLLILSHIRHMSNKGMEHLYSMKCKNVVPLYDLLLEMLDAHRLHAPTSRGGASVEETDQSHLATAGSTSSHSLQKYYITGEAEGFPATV
T13 sequence (P36897 34-503): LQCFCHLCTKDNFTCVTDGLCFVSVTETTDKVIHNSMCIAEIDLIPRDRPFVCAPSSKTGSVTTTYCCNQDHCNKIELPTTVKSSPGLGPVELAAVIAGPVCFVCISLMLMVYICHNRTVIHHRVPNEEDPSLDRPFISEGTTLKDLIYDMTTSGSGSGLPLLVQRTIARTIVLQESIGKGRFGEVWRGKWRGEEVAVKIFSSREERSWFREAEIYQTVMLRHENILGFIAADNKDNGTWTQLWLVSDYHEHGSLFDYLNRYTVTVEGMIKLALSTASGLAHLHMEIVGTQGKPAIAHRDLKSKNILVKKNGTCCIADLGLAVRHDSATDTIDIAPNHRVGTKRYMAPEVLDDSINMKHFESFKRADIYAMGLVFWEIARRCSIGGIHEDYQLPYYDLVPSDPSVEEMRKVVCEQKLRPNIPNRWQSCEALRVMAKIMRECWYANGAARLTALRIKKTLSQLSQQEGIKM

`CNc1ccc(NCCc2ccccc2OC)cc1.Cl` [KDS12025, N^1-(2-methoxyphenethyl)-N^4-methylbenzene-1,4-diamine hydrochloride salt] showed a remaining binding at 10 µM (KIT) of 90%, a remaining binding at 10 µM (GSK3B) of 95% and a remaining binding at 10 µM (PDGFRB) of 92%. For the same molecule, the remaining binding at 10 µM (PIK3CG) was 100%, the remaining binding at 10 µM (PAK4) was 100% and the remaining binding at 10 µM (PIK3C2B) was 91%. For the same molecule, the remaining binding at 10 µM (CDK2) was 92%, the remaining binding at 10 µM (AXL) was 95% and the remaining binding at 10 µM (TRKA) was 100%. It also gave a remaining binding at 10 µM (ACVR1B) of 100%, a remaining binding at 10 µM (AKT2) of 94% and a remaining binding at 10 µM (YANK3) of 83%. It also gave a remaining binding at 10 µM (TGFBR1) of 96%, a remaining binding at 10 µM (LKB1) of 80% and a remaining binding at 10 µM (BMPR2) of 92%. For the same molecule, the activity [1] was 81.8%, the activity [2] was 95.3% and the activity [3] was 106%. For the same molecule, the activity ([4]; mean) was 87.4%, the activity [4] was 82.3% and 92.5% and the activity [5] was 104%. The activity ([6]; mean) was 61.9%, the activity [6] was 64% and 59.8% and the activity [7] was 102%. For the same molecule, the activity ([8]; mean) was 118%, the activity [8] was 117% and 118% and the activity ([9]; mean) was 90.7%. For the same molecule, the activity [9] was 90.3% and 91.2%, the activity ([10]; mean) was 129% and the activity [10] was 138% and 121%. The activity ([11]; mean) was 93.3%, the activity [11] was 89.5% and the activity [12, 20] was 104%. It also gave an activity [12, 21] of 96.8%, an activity [13] of 91.2% and an activity [14] of 88.7%. For the same molecule, the activity [15] was 94.2%, the activity [16] was 87.1% and the activity [17, 20] was 90.4%. For the same molecule, the activity [17, 21] was 88.2%, the activity [18] was 91.4% and 100% and the activity ([19]; mean) was 114%. For the same molecule, the activity [19] was 115% and 114%.
